Data reported in ChEMBL document CHEMBL1129278, “Binding of arylpiperazines, (aryloxy)propanolamines, and tetrahydropyridylindoles to the 5-HT1A receptor: contribution of the molecular lipophilicity potential to three-dimensional quantitative structure-affinity relationship models” (J Med Chem, 1996).

Each compound was assayed against T1, 5-hydroxytryptamine receptor 1A (Rattus norvegicus, UniProt P19327).
T1 sequence (P19327 whole entry): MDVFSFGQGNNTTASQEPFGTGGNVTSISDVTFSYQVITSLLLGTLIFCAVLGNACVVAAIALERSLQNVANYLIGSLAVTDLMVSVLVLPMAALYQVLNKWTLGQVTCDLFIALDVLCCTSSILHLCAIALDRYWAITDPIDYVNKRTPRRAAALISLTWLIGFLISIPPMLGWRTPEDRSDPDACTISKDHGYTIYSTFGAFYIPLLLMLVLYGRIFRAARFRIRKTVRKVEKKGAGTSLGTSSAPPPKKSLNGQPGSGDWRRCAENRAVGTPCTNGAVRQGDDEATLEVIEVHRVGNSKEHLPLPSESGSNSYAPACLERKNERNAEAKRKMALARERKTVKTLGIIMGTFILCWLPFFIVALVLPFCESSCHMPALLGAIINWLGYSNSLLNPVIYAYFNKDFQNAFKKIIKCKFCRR

| SMILES | Ki [nM] |
| --- | --- |
| C=C=CN1CCN(c2cccc(Cl)c2)CC1 | 251 |
| CCCN(CCCN1C(=O)c2ccccc2C1=O)C1COc2cccc(OC)c2C1 (centres undefined) | 50.1 |
| CN(C)CCc1cn(C)c2ccc3c(c12)CCCO3 | 2690 |
| CCCc1ccc2c(c1CCC)CC(N(CCC)CCC)CO2 (centres undefined) | 10000 |
| CCCN(CCC)C1COc2cccc(O)c2C1 (centres undefined) | 2 |
| CCCN(CCCN1C(=O)CC2(CCCC2)CC1=O)C1COc2cccc(OC)c2C1 (centres undefined) | 0.501 |
| CC(C)NCC(O)COc1cccc2[nH]c(C#N)cc12 (centres undefined) | 2.14 |
| NCCc1c[nH]c2ccc3c(c12)CCCO3 | 302 |
| CN(C)CCCC1(c2ccc(F)cc2)OCc2cc(C#N)ccc21 (centres undefined) [CITALOPRAM] | 50100 |
| O=C1c2ccccc2C(=O)N1CCCCN1CCN(c2ccccc2)CC1 | 8.51 |
| CN(C)CC(O)CO (stereo in doubt; 123) | 4900 |
| CCCN(CCC)C1CCc2cccc(C(=O)OC)c2C1 (centres undefined) | 1.7 |
| COc1ccccc1N1CCNCC1 | 12.9 |
| CCCCN1CCN(c2ccccc2OC)CC1 | 129 |
| COc1ccccc1N1CCN(CCCN2C(=O)c3ccccc3C2=O)CC1 | 20 |
| CN1CC=C(c2c[nH]c3ccc(Br)cc23)CC1 | 15.1 |
| CN(C)CC(O)CO (stereo in doubt; 122) | 5010 |
| COc1cccc2c1CC(N1CCCCC1)CC2 (centres undefined) | 77.6 |
| CN(C)CC(O)COc1ccccc1O (centres undefined) | 4900 |
| COc1c(Cl)cccc1N1CCNCC1 | 871 |
| CCCN(CCNC(C)=O)C1COc2cccc(OC)c2C1 (centres undefined) | 20 |
| C=CCN(CCC)C1CCc2cccc(OS(=O)(=O)C(F)(F)F)c2C1 (centres undefined) | 9.55 |
| CCCN(CCC)CC(O)CO (centres undefined) | 2750 |
| FC(F)(F)c1ccc2c(c1)nc(N1CCNCC1)c1cccn12 | 18.6 |
